# PubChem BioAssay AID258 (DTP/NCI, 2004)
# Several values for one entry are separate records, joined by “and”; a condition that tells them apart may be missing. Equal values may be shown once. Inconclusive results and toxic doses are left out.
# System: CD2F1 mice, L1210 leukemia sc, survival T/C
# Experiment: NCI In Vivo Anticancer Drug Screen. Data for tumor model L1210 Leukemia (subcutaneous) in CD2F1 (CDF1) mice
# Details: endpoint: median survival time, higher = longer survival
# Summary of the method: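 Transplantable tumor-bearing mice were treated with compound; survival or tumor size measured and expressed as treated-group value (T) divided by vehicle-treated control value (C).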
compound,measurement,setting,value
CN1c2c(nc(N)[nH]c2=O)NCC1CCNc1ccc(C(=O)NC(CCC(=O)O)C(=O)O)cc1 (stereo not drawn),T/C,"dose: 200.0 mg/kg/injection, schedule: Q01DX009 (ip), vehicle: other",150 % of control
same,T/C,"dose: 200.0 mg/kg/injection, schedule: Q01DX Z (ip), vehicle: other",155 % of control
same,T/C,"dose: 200.0 mg/kg/injection, schedule: Q04DX003 (ip), vehicle: other",116 % of control
same,T/C,"dose: 400.0 mg/kg/injection, schedule: Q01DX009 (ip), vehicle: other",155 % of control
same,T/C,"dose: 400.0 mg/kg/injection, schedule: Q01DX Z (ip), vehicle: other",155 % of control and 166 % of control
same,T/C,"dose: 400.0 mg/kg/injection, schedule: Q04DX003 (ip), vehicle: other",111 % of control
same,T/C,"dose: 1600.0 mg/kg/injection, schedule: Q04DX003 (ip), vehicle: other",111 % of control
Nc1ccn([C@@H]2C=C(CO)[C@@H](O)[C@H]2O)c(=O)n1,T/C,"dose: 0.13 mg/kg/injection, schedule: Q03HX024 (ip), vehicle: saline",116 % of control
same,T/C,"dose: 0.19 mg/kg/injection, schedule: Q03HX024 (ip), vehicle: saline",112 % of control
same,T/C,"dose: 0.3 mg/kg/injection, schedule: Q06HX018 (ip), vehicle: saline",108 % of control
same,T/C,"dose: 0.44 mg/kg/injection, schedule: Q01DX009 (ip), vehicle: saline",100 % of control and 103 % of control
same,T/C,"dose: 0.44 mg/kg/injection, schedule: Q03HX016 (ip), vehicle: saline",119 % of control
same,T/C,"dose: 0.44 mg/kg/injection, schedule: Q03HX024 (ip), vehicle: saline",89 % of control
same,T/C,"dose: 0.45 mg/kg/injection, schedule: Q01DX009 (ip), vehicle: saline",103 % of control and 113 % of control (2×)
same,T/C,"dose: 0.45 mg/kg/injection, schedule: Q01DX009 (sc), vehicle: saline",99 % of control
same,T/C,"dose: 0.45 mg/kg/injection, schedule: Q03HX008 (ip), vehicle: saline",118 % of control
same,T/C,"dose: 0.45 mg/kg/injection, schedule: Q06HX018 (ip), vehicle: saline",163 % of control
same,T/C,"dose: 0.67 mg/kg/injection, schedule: Q03HX008 (ip), vehicle: saline",119 % of control
same,T/C,"dose: 0.67 mg/kg/injection, schedule: Q06HX018 (ip), vehicle: saline",214 % of control
same,T/C,"dose: 0.8 mg/kg/injection, schedule: Q01DX009 (ip), vehicle: saline",157 % of control
same,T/C,"dose: 0.99 mg/kg/injection, schedule: Q03HX008 (ip), vehicle: saline",120 % of control
same,T/C,"dose: 1.0 mg/kg/injection, schedule: Q01DX005 (iv), vehicle: saline",151 % of control
same,T/C,"dose: 1.0 mg/kg/injection, schedule: Q01DX009 (sc), vehicle: saline",180 % of control
same,T/C,"dose: 1.0 mg/kg/injection, schedule: Q03HX016 (ip), vehicle: saline",161 % of control
same,T/C,"dose: 1.0 mg/kg/injection, schedule: Q06HX018 (ip), vehicle: saline",108 % of control
same,T/C,"dose: 1.2 mg/kg/injection, schedule: Q01DX009 (ip), vehicle: saline",189 % of control
same,T/C,"dose: 1.49 mg/kg/injection, schedule: Q01DX005 (iv), vehicle: saline",97 % of control
same,T/C,"dose: 1.49 mg/kg/injection, schedule: Q03HX008 (ip), vehicle: saline",89 % of control
same,T/C,"dose: 1.5 mg/kg/injection, schedule: Q01DX005 (iv), vehicle: saline",168 % of control
same,T/C,"dose: 1.5 mg/kg/injection, schedule: Q01DX009 (sc), vehicle: saline",182 % of control
same,T/C,"dose: 2.2 mg/kg/injection, schedule: Q01DX005 (iv), vehicle: saline",162 % of control
same,T/C,"dose: 2.23 mg/kg/injection, schedule: Q01DX005 (iv), vehicle: saline",89 % of control
same,T/C,"dose: 2.25 mg/kg/injection, schedule: Q01DX009 (sc), vehicle: saline",97 % of control
same,T/C,"dose: 3.0 mg/kg/injection, schedule: Q03HX008 (ip), vehicle: saline",154 % of control
same,T/C,"dose: 3.3 mg/kg/injection, schedule: Q01DX005 (iv), vehicle: saline",90 % of control
same,T/C,"dose: 4.5 mg/kg/injection, schedule: Q03HX008 (ip), vehicle: saline",113 % of control
same,T/C,"dose: 4.8 mg/kg/injection, schedule: Q01DX005 (iv), vehicle: saline",86 % of control
same,T/C,"dose: 5.0 mg/kg/injection, schedule: Q01DX001 (ip), vehicle: saline",118 % of control
same,T/C,"dose: 9.0 mg/kg/injection, schedule: Q03HX004 (iv), vehicle: saline",152 % of control
same,T/C,"dose: 10.7 mg/kg/injection, schedule: Q01DX001 (ip), vehicle: saline",123 % of control
same,T/C,"dose: 11.2 mg/kg/injection, schedule: Q01DX001 (ip), vehicle: saline",110 % of control and 123 % of control
same,T/C,"dose: 11.2 mg/kg/injection, schedule: Q01DX001 (iv), vehicle: saline",119 % of control
same,T/C,"dose: 16.9 mg/kg/injection, schedule: Q01DX001 (iv), vehicle: saline",100 % of control
same,T/C,"dose: 36.0 mg/kg/injection, schedule: Q01DX001 (ip), vehicle: saline",154 % of control
same,T/C,"dose: 37.9 mg/kg/injection, schedule: Q01DX001 (iv), vehicle: saline",90 % of control
same,T/C,"dose: 54.0 mg/kg/injection, schedule: Q01DX001 (ip), vehicle: saline",164 % of control
same,T/C,"dose: 54.0 mg/kg/injection, schedule: Q01DX001 (iv), vehicle: saline",158 % of control
same,T/C,"dose: 56.8 mg/kg/injection, schedule: Q01DX001 (iv), vehicle: saline",88 % of control
same,T/C,"dose: 81.0 mg/kg/injection, schedule: Q01DX001 (ip), vehicle: saline",106 % of control
same,T/C,"dose: 81.0 mg/kg/injection, schedule: Q01DX001 (iv), vehicle: saline",103 % of control
same,T/C,"dose: 121.0 mg/kg/injection, schedule: Q01DX001 (iv), vehicle: saline",91 % of control
same,T/C,"dose: 88.0 micrograms/kg/injection, schedule: Q03HX024 (ip), vehicle: saline",112 % of control
same,T/C,"dose: 200.0 micrograms/kg/injection, schedule: Q03HX024 (ip), vehicle: saline",166 % of control
Nc1ncnc2c1ccn2C1OC(CO)C(O)C1O (stereo not drawn),T/C,"dose: 0.25 mg/kg/injection, schedule: Q01DX009 (ip), vehicle: Klucel (hydroxypropylcellulose) (HPC)",102 % of control
same,T/C,"dose: 0.5 mg/kg/injection, schedule: Q01DX009 (ip), vehicle: Klucel (hydroxypropylcellulose) (HPC)",97 % of control
same,T/C,"dose: 1.0 mg/kg/injection, schedule: Q01DX009 (ip), vehicle: Klucel (hydroxypropylcellulose) (HPC)",92 % of control
same,T/C,"dose: 2.0 mg/kg/injection, schedule: Q01DX009 (ip), vehicle: Klucel (hydroxypropylcellulose) (HPC)",95 % of control
same,T/C,"dose: 4.0 mg/kg/injection, schedule: Q01DX009 (ip), vehicle: Klucel (hydroxypropylcellulose) (HPC)",97 % of control
same,T/C,"dose: 8.0 mg/kg/injection, schedule: Q01DX009 (ip), vehicle: Klucel (hydroxypropylcellulose) (HPC)",102 % of control
same,T/C,"dose: 16.0 mg/kg/injection, schedule: Q01DX009 (ip), vehicle: Klucel (hydroxypropylcellulose) (HPC)",101 % of control
Nc1cc(C(=O)Nc2ccc(C3=NCCN3)cc2)ccc1C(=O)Nc1ccc(C2=NCCN2)cc1,T/C,"dose: 3.0 mg/kg/injection, schedule: Q01DX Z (sc), vehicle: methylcellulose (MC)",111 % of control
same,T/C,"dose: 3.0 mg/kg/injection, schedule: Q01DX Z (sc), vehicle: water",116 % of control
same,T/C,"dose: 5.0 mg/kg/injection, schedule: Q01DX Z (sc), vehicle: methylcellulose (MC)",200 % of control
same,T/C,"dose: 5.0 mg/kg/injection, schedule: Q01DX Z (sc), vehicle: water",266 % of control
same,T/C,"dose: 8.4 mg/kg/injection, schedule: Q01DX Z (sc), vehicle: methylcellulose (MC)",255 % of control
same,T/C,"dose: 8.4 mg/kg/injection, schedule: Q01DX Z (sc), vehicle: water",294 % of control
same,T/C,"dose: 14.0 mg/kg/injection, schedule: Q01DX Z (sc), vehicle: methylcellulose (MC)",200 % of control
same,T/C,"dose: 14.0 mg/kg/injection, schedule: Q01DX Z (sc), vehicle: water",266 % of control
same,T/C,"dose: 23.0 mg/kg/injection, schedule: Q01DX Z (sc), vehicle: methylcellulose (MC)",161 % of control
same,T/C,"dose: 23.0 mg/kg/injection, schedule: Q01DX Z (sc), vehicle: water",288 % of control
same,T/C,"dose: 39.0 mg/kg/injection, schedule: Q01DX Z (sc), vehicle: methylcellulose (MC)",155 % of control
same,T/C,"dose: 39.0 mg/kg/injection, schedule: Q01DX Z (sc), vehicle: water",211 % of control
same,T/C,"dose: 65.0 mg/kg/injection, schedule: Q01DX Z (sc), vehicle: methylcellulose (MC)",155 % of control
same,T/C,"dose: 65.0 mg/kg/injection, schedule: Q01DX Z (sc), vehicle: water",200 % of control
N#Cc1c(-c2ccc(F)cc2)c(-c2ccc(F)cc2)nn(CCO)c1=O,T/C,"dose: 108.0 mg/kg/injection, schedule: Q01DX005 (ip), vehicle: distilled water + Tween-80 + alcohol",109 % of control
same,T/C,"dose: 180.0 mg/kg/injection, schedule: Q01DX005 (ip), vehicle: distilled water + Tween-80 + alcohol",113 % of control
same,T/C,"dose: 300.0 mg/kg/injection, schedule: Q01DX005 (ip), vehicle: distilled water + Tween-80 + alcohol",113 % of control
same,T/C,"dose: 833.0 mg/kg/injection, schedule: Q01DX005 (ip), vehicle: distilled water + Tween-80 + alcohol",178 % of control
